Assay results taken from the supplement of paper PMC10307832.

Compound: CO[C@@H]1[C@H](N(C)C(=O)c2ccccc2)C[C@H]2O[C@]1(C)n1c3ccccc3c3c4c(c5c6ccccc6n2c5c31)C(=O)NC4 [Midostaurin] + O=C(c1cc(Cc2n[nH]c(=O)c3ccccc23)ccc1F)N1CCN(C(=O)C2CC2)CC1 [Olaparib] (partner 8 µM)
Assay: relative viability (nuclei count vs DMSO), 5 days (fraction); higher = more cells survive
Conditions: first compound 0.01 µM
How it was run: (§1)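 Medians of duplicate plates are given as relative viability. That measure is the nuclei count in treated wells divided by the count in vehicle wells. Counts were taken on 4× images of lung cancer cell lines in 1536-well plates, 5 days after pin-tool dosing the day after seeding with one drug alone or a fixed anchor-drug dose plus five library-drug doses (not always all listed) in √10 steps.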

Row | Cell Line | relative viability
1 | LOU-NH91 | 0.922
2 | ChaGo-K-1 | 0.439
3 | NCI-H2170 | 0.569
4 | NCI-H2405 | 0.841
5 | HOP-62 | 0.321
6 | LU99A | 0.261
7 | BEN | 1.12
8 | HARA | 0.786
9 | HCC-78 | 0.836
10 | NCI-H322M | 0.703
11 | LCLC-97TM1 | 0.52
12 | NCI-H2009 | 0.696
13 | A-427 | 0.711
14 | NCI-H441 | 0.475
15 | NCI-H661 | 0.721
16 | NCI-H1734 | 0.603
17 | NCI-H460 | 0.406
18 | NCI-H2347 | 0.602
19 | SK-LU-1 | 0.471
20 | NCI-H1395 | 0.44
21 | 201T | 0.833
22 | NCI-H1915 | 0.257
23 | HCC-827 | 0.582
24 | LXF-289 | 1.13
25 | NCI-H23 | 0.317
26 | NCI-H647 | 0.495
27 | NCI-H1651 | 0.199
28 | EPLC-272H | 0.659
29 | NCI-H1355 | 0.777
30 | NCI-H3122 | 0.655

Same assay, conditions: first compound 0.03162 µM

Row | Cell Line | relative viability
31 | LOU-NH91 | 0.828
32 | ChaGo-K-1 | 0.404
33 | NCI-H2170 | 0.569
34 | NCI-H2405 | 0.827
35 | HOP-62 | 0.452
36 | LU99A | 0.295
37 | BEN | 1.24
38 | HARA | 0.842
39 | HCC-78 | 0.753
40 | NCI-H322M | 0.72
41 | LCLC-97TM1 | 0.374
42 | NCI-H2009 | 0.668
43 | A-427 | 0.654
44 | NCI-H441 | 0.677
45 | NCI-H661 | 0.7
46 | NCI-H1734 | 0.562
47 | NCI-H460 | 0.417
48 | NCI-H2347 | 0.54
49 | SK-LU-1 | 0.439
50 | NCI-H1395 | 0.468
51 | 201T | 0.801
52 | NCI-H1915 | 0.249
53 | HCC-827 | 0.628
54 | LXF-289 | 1.05
55 | NCI-H23 | 0.296
56 | NCI-H647 | 0.688
57 | NCI-H1651 | 0.2
58 | EPLC-272H | 0.729
59 | NCI-H1355 | 0.78
60 | NCI-H3122 | 0.614

Same assay, conditions: first compound 0.1 µM

Row | Cell Line | relative viability
61 | LOU-NH91 | 0.88
62 | ChaGo-K-1 | 0.338
63 | NCI-H2170 | 0.551
64 | NCI-H2405 | 0.838
65 | HOP-62 | 0.414
66 | LU99A | 0.257
67 | BEN | 0.928
68 | HARA | 0.644
69 | HCC-78 | 0.677
70 | NCI-H322M | 0.698
71 | LCLC-97TM1 | 0.32
72 | NCI-H2009 | 0.611
73 | A-427 | 0.713
74 | NCI-H441 | 0.458
75 | NCI-H661 | 0.714
76 | NCI-H1734 | 0.62
77 | NCI-H460 | 0.314
78 | NCI-H2347 | 0.424
79 | SK-LU-1 | 0.443
80 | NCI-H1395 | 0.454
81 | 201T | 0.815
82 | NCI-H1915 | 0.243
83 | HCC-827 | 0.589
84 | LXF-289 | 1.04
85 | NCI-H23 | 0.296
86 | NCI-H647 | 0.455
87 | NCI-H1651 | 0.169
88 | EPLC-272H | 0.658
89 | NCI-H1355 | 0.77
90 | NCI-H3122 | 0.573

Same assay, conditions: first compound 0.3162 µM

Row | Cell Line | relative viability
91 | LOU-NH91 | 0.943
92 | ChaGo-K-1 | 0.433
93 | NCI-H2170 | 0.54
94 | NCI-H2405 | 0.861
95 | HOP-62 | 0.372
96 | LU99A | 0.207
97 | BEN | 1.13
98 | HARA | 0.752
99 | HCC-78 | 0.511
100 | NCI-H322M | 0.779
101 | LCLC-97TM1 | 0.464
102 | NCI-H2009 | 0.512
103 | A-427 | 0.725
104 | NCI-H441 | 0.427
105 | NCI-H661 | 0.717
106 | NCI-H1734 | 0.69
107 | NCI-H460 | 0.382
108 | NCI-H2347 | 0.519
109 | SK-LU-1 | 0.346
110 | NCI-H1395 | 0.465
111 | 201T | 0.86
112 | NCI-H1915 | 0.224
113 | HCC-827 | 0.654
114 | LXF-289 | 0.992
115 | NCI-H23 | 0.223
116 | NCI-H647 | 0.316
117 | NCI-H1651 | 0.17
118 | EPLC-272H | 0.372
119 | NCI-H1355 | 0.68
120 | NCI-H3122 | 0.723

Compound: COc1cc(-c2nn([C@H]3CC[C@H](N4CCN(C(C)=O)CC4)CC3)c3ncnc(N)c23)ccc1NC(=O)c1cc2ccccc2n1C + COc1cc2c(Oc3ccc(NC(=O)C4(C(=O)Nc5ccc(F)cc5)CC4)cc3F)ccnc2cc1OCCCN1CCOCC1 [Foretinib] (partner 0.25 µM)
Assay: as above
Conditions: first compound 0.0128 µM
How it was run: as §1

Row | Cell Line | relative viability
121 | LOU-NH91 | 0.991
122 | ChaGo-K-1 | 0.994
123 | NCI-H2170 | 1.09
124 | NCI-H2405 | 1.09
125 | HOP-62 | 1.16
126 | LU99A | 0.96
127 | BEN | 0.502
128 | HARA | 1.07
129 | HCC-78 | 0.544
130 | NCI-H322M | 1.03
131 | LCLC-97TM1 | 1.06
132 | NCI-H2009 | 1.22
133 | A-427 | 1.03
134 | NCI-H441 | 1.09
135 | NCI-H661 | 1.16
136 | NCI-H1734 | 0.877
137 | NCI-H460 | 1
138 | NCI-H2347 | 0.788
139 | SK-LU-1 | 0.769
140 | NCI-H1395 | 0.975
141 | 201T | 1.06
142 | NCI-H1915 | 1.14
143 | HCC-827 | 0.998
144 | LXF-289 | 1.05
145 | NCI-H23 | 1.22
146 | NCI-H647 | 1.16
147 | NCI-H1651 | 0.911
148 | EPLC-272H | 0.78
